In US4542018A, “Teichomycin A2 pure single factors 1, 2, 3, 4 and 5 and method for their production” (Gruppo Lepetit S.p.A., priority 1982, dated 1985):

Legend:
[1] = tested on: S. aureus ATCC 6538; test: Microbiological potency by agar diffusion method, Teichomycin A2 complex as standard; format: cell-based; settings: 2.5-20 μg/ml, 37° C., 18 hours
Protocol: In particular an adeguate amount of Teichomycin A2 factor 1, Teichomycin A2 factor 2, Teichomycin A2 factor 3, Teichomycin A2 factor 4, Teichomycin A2 factor 5 and Teichomycin A2 complex used as the standard is dissolved in dimethylformamide at a concentration of 2000 μg/ml. These solutions are further diluted using phosphate buffer 0.067 M pH 7.4 supplemented with 1% bovine serum in order to provide the following concentrations: 2.5, 5, 10, and 20 μg/ml.
Filter paper discs are then soaked into the sample solutions and placed at regular intervals on the surface of agar plates seeded with a suspension of the test microorganism. The plates are incubated at 37° C. for 18 hours and then the diameter of the inhibition zones are measured. The data obtained are fed into a computer to calculate the potency of the individual factors relative to the complex.

[2] = tested on: Streptococcus pyogenes; test: In vitro antibacterial activity (MIC), two-fold dilution in microtiter system; format: cell-based; settings: 7 tested strains, clinical isolates, Todd-Hewitt broth, 18-24 h at 37° C.
Protocol: (§1) Penassay broth (Difco) and Todd-Hewitt broth (Difco) were used for staphylococci and streptococci respectively. Overnight broth cultures were diluted so that the final inoculum was about 10^3 colony forming units/ml.

[3] = tested on: Streptococcus sanguis; test: as above; format: cell-based; settings: 1 tested strain, clinical isolate, Todd-Hewitt broth, 18-24 h at 37° C.
Protocol: as §1

[4] = tested on: Streptococcus bovis; test: as above; format: cell-based; settings: 1 tested strain, clinical isolate, Todd-Hewitt broth, 18-24 h at 37° C.
Protocol: as §1

[5] = tested on: Staphylococcus aureus; test: as above; format: cell-based; settings: 5 tested strains, clinical isolates, Penassay broth, 18-24 h at 37° C.
Protocol: as §1

[6] = tested on: Streptococcus agalactiae; test: as above; format: cell-based; settings: 1 tested strain, clinical isolate, Todd-Hewitt broth, 18-24 h at 37° C.
Protocol: as §1

[7] = tested on: Streptococcus salivarius; test: as above; format: cell-based; settings: 1 tested strain, clinical isolate, Todd-Hewitt broth, 18-24 h at 37° C.
Protocol: as §1

[8] = tested on: Streptococcus pneumoniae; test: as above; format: cell-based; settings: 6 tested strains, clinical isolates, Todd-Hewitt broth, 18-24 h at 37° C.
Protocol: as §1

[9] = tested on: Staphylococcus epidermidis; test: as above; format: cell-based; settings: 4 tested strains, clinical isolates, Penassay broth, 18-24 h at 37° C.
Protocol: as §1

[10] = tested on: Streptococcus mitis; test: as above; format: cell-based; settings: 1 tested strain, clinical isolate, Todd-Hewitt broth, 18-24 h at 37° C.
Protocol: as §1

[11] = tested on: Streptococcus faecalis; test: as above; format: cell-based; settings: 5 tested strains, clinical isolates, Todd-Hewitt broth, 18-24 h at 37° C.
Protocol: as §1

[12] = Solubility; format: physicochemical; settings: for solubility in water: water at pH>7.0 or at pH<2
[13] = tested on: S. pneumoniae L 44; test: In vivo antibacterial activity, experimental infection in mice; settings: s.c.
Protocol: (§2) Teichomycin A2 factors 2,3,4 and 5 were tested in the experimental infections caused by S. pneumoniae and by S. pyogenes in mice. The experiments were carried out in comparison with Teichomycin A2 complex.

[14] = tested on: S. pyogenes L 49; test: as above; settings: s.c.
Protocol: as §2

[15] = tested on: Gram-positive bacteria; test: In vitro antibacterial spectrum; format: cell-based
Protocol: as §1

SMILES	microbiological potency relative to the complex [1] [U/mg]	M.I.C. [2] [µg/mL]	M.I.C. [3] [µg/mL]	M.I.C. [4] [µg/mL]	M.I.C. [5] [µg/mL]	M.I.C. [6] [µg/mL]	M.I.C. [7] [µg/mL]	M.I.C. [8] [µg/mL]	M.I.C. [9] [µg/mL]	M.I.C. [10] [µg/mL]	M.I.C. [11] [µg/mL]	solubility in chloroform, benzene, n-hexane, acetonitrile, ethyl ether, acetone, ethyl acetate, carbon tetrachloride [12]	solubility in dimethylformamide, dimethylsulfoxide and propyleneglycol [12]	solubility in methanol and ethanol [12]	solubility in methylcellosolve and glycerol [12]	solubility in water [12]	ED50 [13]	ED50 [14]	in vitro antibacterial activity (spectrum) [15]
CCCCCCCCCC(=O)N[C@H]1[C@H](Oc2c3cc4cc2Oc2ccc(cc2Cl)[C@@H](O[C@@H]2O[C@H](CO)[C@@H](O)[C@H](O)[C@H]2NC(C)=O)[C@@H]2NC(=O)[C@H](NC(=O)[C@@H]4NC(=O)[C@H]4NC(=O)[C@H](Cc5ccc(c(Cl)c5)O3)NC(=O)[C@H](N)c3ccc(O)c(c3)Oc3cc(O)cc4c3)c3ccc(O)c(c3)-c3c(O[C@H]4O[C@H](CO)[C@@H](O)[C@H](O)[C@@H]4O)cc(O)cc3[C@@H](C(=O)O)NC2=O)O[C@H](CO)[C@@H](O)[C@@H]1O [Teichomycin A2 factor 3]	1131	0.025 to 0.05	0.1	0.2	0.4 to 0.8	0.05	0.1	0.05 to 0.1	0.2 to 0.8	0.0125	0.1 to 0.2	almost insoluble	freely soluble	poorly soluble	slightly soluble	freely soluble	0.27 (0.23-0.32) mg/kg/day	0.13 (0.11-0.16) mg/kg/day	mainly active against Gram-positive bacteria
CC(=O)N[C@H]1[C@H](O[C@@H]2c3ccc(c(Cl)c3)Oc3cc4cc(c3O[C@@H]3O[C@H](CO)[C@@H](O)[C@H](O)[C@H]3NC(=O)CCCCCCCC(C)C)Oc3ccc(cc3Cl)C[C@H]3NC(=O)[C@H](N)c5ccc(O)c(c5)Oc5cc(O)cc(c5)[C@H](NC3=O)C(=O)N[C@H]4C(=O)N[C@H]3C(=O)N[C@@H]2C(=O)N[C@H](C(=O)O)c2cc(O)cc(O[C@H]4O[C@H](CO)[C@@H](O)[C@H](O)[C@@H]4O)c2-c2cc3ccc2O)O[C@H](CO)[C@@H](O)[C@@H]1O [Teichomycin A2 factor 5]	954	0.006 to 0.05	0.05	0.4	0.2 to 0.8	0.1	0.05	0.05 to 0.1	0.2 to 0.8	0.025	0.1 to 0.4	almost insoluble	freely soluble	poorly soluble	slightly soluble	freely soluble	0.13 (0.10-0.15) mg/kg/day	0.10 (0.098-0.13) mg/kg/day	mainly active against Gram-positive bacteria
CCC(C)CCCCCCC(=O)N[C@H]1[C@H](Oc2c3cc4cc2Oc2ccc(cc2Cl)[C@@H](O[C@@H]2O[C@H](CO)[C@@H](O)[C@H](O)[C@H]2NC(C)=O)[C@@H]2NC(=O)[C@H](NC(=O)[C@@H]4NC(=O)[C@H]4NC(=O)[C@@H](Cc5ccc(c(Cl)c5)O3)NC(=O)[C@H](N)c3ccc(O)c(c3)Oc3cc(O)cc4c3)c3ccc(O)c(c3)-c3c(O[C@H]4O[C@H](CO)[C@@H](O)[C@H](O)[C@@H]4O)cc(O)cc3[C@@H](C(=O)O)NC2=O)O[C@H](CO)[C@@H](O)[C@@H]1O (stereo partly shown) [Teichomycin A2 factor 4]	1066	0.006 to 0.05	0.05	0.4	0.2 to 0.8	0.1	0.05	0.05 to 0.1	0.2 to 0.8	0.025	0.1 to 0.4	almost insoluble	freely soluble	poorly soluble	slightly soluble	freely soluble	–	–	mainly active against Gram-positive bacteria
CCCCC/C=C\CCC(=O)N[C@H]1[C@H](Oc2c3cc4cc2Oc2ccc(cc2Cl)[C@@H](O[C@@H]2O[C@H](CO)[C@@H](O)[C@H](O)[C@H]2NC(C)=O)[C@@H]2NC(=O)[C@H](NC(=O)[C@@H]4NC(=O)[C@H]4NC(=O)[C@@H](Cc5ccc(c(Cl)c5)O3)NC(=O)[C@H](N)c3ccc(O)c(c3)Oc3cc(O)cc4c3)c3ccc(O)c(c3)-c3c(O[C@H]4O[C@H](CO)[C@@H](O)[C@H](O)[C@@H]4O)cc(O)cc3[C@@H](C(=O)O)NC2=O)O[C@H](CO)[C@@H](O)[C@@H]1O [Teichomycin A2 factor 1]	841	0.05 to 0.1	0.1	0.4	0.8 to 1.6	0.1	0.2	0.1 to 0.2	0.2 to 1.6	0.025	0.2 to 0.4	almost insoluble	freely soluble	poorly soluble	slightly soluble	freely soluble	–	–	mainly active against Gram-positive bacteria
CC(=O)N[C@H]1[C@H](O[C@@H]2c3ccc(c(Cl)c3)Oc3cc4cc(c3O[C@@H]3O[C@H](CO)[C@@H](O)[C@H](O)[C@H]3NC(=O)CCCCCCC(C)C)Oc3ccc(cc3Cl)C[C@H]3NC(=O)[C@H](N)c5ccc(O)c(c5)Oc5cc(O)cc(c5)[C@H](NC3=O)C(=O)N[C@H]4C(=O)N[C@H]3C(=O)N[C@@H]2C(=O)N[C@H](C(=O)O)c2cc(O)cc(O[C@H]4O[C@H](CO)[C@@H](O)[C@H](O)[C@@H]4O)c2-c2cc3ccc2O)O[C@H](CO)[C@@H](O)[C@@H]1O [Teichomycin A2 factor 2]	1086	0.025 to 0.1	0.1	0.4	0.8 to 1.6	0.1	0.2	0.05 to 0.1	0.1 to 1.6	0.025	0.1 to 0.4	almost insoluble	freely soluble	poorly soluble	slightly soluble	freely soluble	0.28 (0.22-0.34) mg/kg/day	0.15 (0.13-0.18) mg/kg/day	mainly active against Gram-positive bacteria
